Experimental data from the NIST ThermoML archive (doi:10.1016/j.jct.2012.01.025).
Numbers after ± are expanded uncertainties.

Columns and labels:
[1] = for vapor or sublimation pressure: Closed cell (Static) method
[2] = Molar enthalpy of transition or fusion; settings: Crystal; DSC
[3] = molar enthalpy of vaporization or sublimation; settings: 298.15 K; Crystal; Drop calorimetry

c1ccc2c(c1)-c1cccc3cccc-2c13 [fluoranthene]
[1]
Settings | Normal melting temperature [°C] | vapor or sublimation pressure [kPa]
348.83 K, Crystal | – | 0.00042 ± 0.00012
351.82 K, Crystal | – | 0.00056 ± 0.00012
354.78 K, Liquid | – | 0.00117 ± 0.00013
354.79 K, Crystal | – | 0.00076 ± 0.00013
356.76 K, Liquid | – | 0.00137 ± 0.00013
357.77 K, Crystal | – | 0.00101 ± 0.00013
360.71 K, Liquid | – | 0.00185 ± 0.00014
360.73 K, Crystal | – | 0.0013 ± 0.00013
363.72 K, Crystal | – | 0.00171 ± 0.00014
366.68 K, Crystal | – | 0.00225 ± 0.00015
366.68 K, Liquid | – | 0.0029 ± 0.00017
368.53 K, Liquid | – | 0.0033 ± 0.00018
369.65 K, Crystal | – | 0.00292 ± 0.00017
370.63 K, Liquid | – | 0.00384 ± 0.0002
372.57 K, Liquid | – | 0.00438 ± 0.00021
372.62 K, Crystal | – | 0.00379 ± 0.0002
374.61 K, Liquid | – | 0.00509 ± 0.00024
375.59 K, Crystal | – | 0.00491 ± 0.00023
378.57 K, Liquid | – | 0.0067 ± 0.00029
382.51 K, Liquid | – | 0.00865 ± 0.00036
384.49 K, Liquid | – | 0.00979 ± 0.0004
386.46 K, Liquid | – | 0.01118 ± 0.00046
388.46 K, Liquid | – | 0.01265 ± 0.00051
390.43 K, Liquid | – | 0.01425 ± 0.00054
392.43 K, Liquid | – | 0.0161 ± 0.00057
394.39 K, Liquid | – | 0.0181 ± 0.0006
396.38 K, Liquid | – | 0.02041 ± 0.00063
398.36 K, Liquid | – | 0.02287 ± 0.00067
400.35 K, Liquid | – | 0.02578 ± 0.00071
402.34 K, Liquid | – | 0.02887 ± 0.00076
404.3 K, Liquid | – | 0.03224 ± 0.00081
Crystal, DTA | 109.69 ± 0.4 | –

Settings | Molar enthalpy of transition or fusion [kcal/mol] | molar enthalpy [kcal/mol]
[2] | 4.63 ± 0.127 | –
[3] | – | 23 ± 0.669
